SMILES strings stand for the structures.

For this test, the system named is HCV 1b-377-neo replicon cells. The test is described as follows: HCV replicon FRET assay. The format is cell-based. The following applies: Hepatitis C virus; HCV replicon; read-out: Activity (EC50). The source says:
The HCV replicon cell line was isolated from colonies as described by Lohman, et. al. (Science 1999, 285, 110-113, expressly incorporated by reference in its entirety) and used for all experiments. The HCV replicon has the nucleic acid sequence set forth in EMBL Accession No.: AJ242652, the coding sequence of which is from nt 1801 to 7758.
The coding sequence of the published HCV replicon was synthesized by Operon Technologies, Inc. (Alameda, Calif.), and the fall-length replicon was then assembled in plasmid pGem9zf(+) (Promega, Madison, Wis.) using standard molecular biology techniques. The replicon consists of (i) the HCV 5′ UTR fused to the first 12 amino acids of the capsid protein, (ii) the neomycin phosphotransferase gene (neo), (iii) the IRES from encephalomyocarditis virus (EMCV), and (iv) HCV NS3 to NS5B genes and the HCV 3′ UTR. Plasmid DNAs were linearized with ScaI and RNA transcripts were synthesized in vitro using the T7 MegaScript transcription kit (Ambion, Austin, Tex.) according to manufacturer's directions.
To generate cell lines, 4×10^6 Huh-7 cells (kindly provided by R. Bartenschlager and available from Health Science Research Resources Bank, Japan Health Sciences Foundation) were electroporated (GenePulser System, Bio-Rad) with 10 micrograms(“μg”) of RNA transcript and plated into 100-mm dishes. After 24 hours, selective media containing 1.0 milligrams/milliliter (“mg/mL”) G418 was added and media was changed every 3 to 5 days. […] These cell lines were maintained at 37° C., 5% CO2, 100% relative humidity in DMEM (Cat#11965-084) Gibco-BRL, Rockville, Md., with 10% heat inactivated calf serum (Sigma), 10 mL of 100× penicillin/streptomycin (Cat#15140-122) Gibco-BRL, Rockville, Md., Geneticin (Cat#10131-027) Gibco-BRL, Rockville, Md. at 1 mg/mL. One of the cell lines (deposited as ATCC Accession No. PTA-4583 in the American Type Culture Collection) which had approximately 3,000 copies of HCV replicon RNA/cell was used for development of the assay (HCV 1b-377-neo replicon cells).
To perform the HCV FRET screening assay, 96-well cell culture plates were used. The FRET peptide (Anaspec, Inc., San Jose, Calif.) (Taliani et al., Anal. Biochem. 1996, 240, 60-67, hereby incorporated by reference in its entirety) contains a fluorescence donor, EDANS, near one end of the peptide and an acceptor, DABCYL, near the other end. The fluorescence of the peptide is quenched by […] resonance energy transfer (RET) between the donor and the acceptor, but as the NS3 protease cleaves the peptide the products are released from RET quenching and the fluorescence of the donor becomes apparent.
The assay reagent was made as follows: 5X luciferase cell culture lysis (Cat#E153A, Promega, Madison, Wis.) diluted to 1X with dH2O, NaCl added to […] final, the FRET peptide diluted to 20 micromolar (“μM”) final from a 2 mM stock. HCV 1b-377-neo replicon cells were trypsinized, placed into each well of a 96-well plate and allowed to attach overnight. The next day, the test compounds were added to columns 1 through 10; column 11 was media plus DMSO only, and column 12 contained a titration of interferon or an HCV specific inhibitor as a control (1000 units for A12, B12, 100 units for C12, D12, 10 units for E12, F12 and 1 unit for G12, H12). […] In addition, naïve Huh-7 cells could also be used to replace wells A12 and B12 as a background control.
At subsequent various times (typically 72 hours), 10% final volume Alamar blue (Cat#00-100, Trek Diagnostics, Cleveland, Ohio) was added to each well. The plates were returned to the incubator for 5 hours and then read in the Cytoflour (PE Biosystems) to determine Alamar blue conversion in each well as a measure of cellular toxicity.
With `CC(=O)N1C[C@H](OC(C)(C)C)C[C@H]1C(=O)Nc1ccc(/C=C/c2ccc(NC(=O)[C@@H]3C[C@@H](OC(C)(C)C)CN3C(=O)[C@H]3CCCO3)cc2)cc1` [Example 129], the EC50 lay within 0.1 to 1 µM.

Take `CCc1ccccc1C(=O)Nc1ccc(/C=C/c2ccc(NC(=O)[C@@H]3CCCN3C(=O)Cc3ccccc3)cc2)cc1` [Example 265]: the concentration giving a half-maximal response (EC50) lay in the range of 0.1 to 1 µM.

As to `Cc1ccc(C(=O)N2CCC[C@H]2C(=O)Nc2ccc(/C=C/c3ccc(NC(=O)[C@@H]4CCCN4C(=O)c4ccc(C)nc4)cc3)cc2)cn1` [Example 80], the EC50 was 0.1 to 1 µM.

In the case of `O=C(Nc1ccc(/C=C/c2ccc(NC(=O)[C@@H]3CCCN3C(=O)c3c[nH]c4ccccc34)cc2)cc1)[C@@H]1CCCN1C(=O)c1c[nH]c2ccccc12` [Example 209], the 50% effective concentration (EC50) was 0.1 to 1 µM.

With `O=C(Nc1ccc(/C=C/c2ccc(NC(=O)[C@@H]3CCCN3C(=O)c3nccc4ccccc34)cc2)cc1)[C@@H]1CCCN1C(=O)c1nccc2ccccc12` [Example 300], the EC50 is 0.0001 to 0.09 µM.

`O=C(Nc1ccc(/C=C/c2ccc(NC(=O)[C@@H]3CCCN3C(=O)C3Cc4ccccc43)cc2)cc1)[C@@H]1CCCN1` (stereo partly drawn) [Example 115]: the concentration for a half-maximal effect (EC50) was in the range of 1 to 10 µM.

Turning to `CCc1ccccc1C(=O)N1C[C@@H](N(C)C)C[C@H]1C(=O)Nc1ccc(/C=C/c2ccc(NC(=O)[C@@H]3C[C@H](N(C)C)CN3C(=O)c3ccccc3CC)cc2)cc1` [Example 228], the concentration giving a half-maximal response (EC50) lay within 1 to 10 µM.

In the case of `CC(=O)N1CC=C[C@H]1C(=O)Nc1ccc(/C=C/c2ccc(NC(=O)[C@@H]3C=CCN3C(=O)Cc3cccnc3)cc2)cc1` [Example 219], the concentration for a half-maximal effect (EC50) was in the range of 0.0001 to 0.09 µM.

Take `Cc1cc(CC(=O)N2CCC[C@H]2C(=O)Nc2ccc(/C=C/c3ccc(NC(=O)[C@@H]4CCCN4C(=O)C(C)C)cc3)cc2)on1` [Example 98]: the EC50 lay within 0.0001 to 0.09 µM.

`O=C(Nc1ccc(/C=C/c2ccc(NC(=O)[C@@H]3CCCN3C(=O)c3cn[nH]c3)cc2)cc1)[C@@H]1CCCN1C(=O)c1cn[nH]c1` [Example 77]: the EC50 was in the range of 0.0001 to 0.09 µM.

Turning to `[N-]=[N+]=Nc1ccc(C(=O)N2CCC[C@H]2C(=O)Nc2ccc(/C=C/c3ccc(NC(=O)[C@@H]4CCCN4C(=O)c4ccc(N=[N+]=[N-])cc4)cc3)cc2)cc1` [Example 60], the half-maximal effective concentration (EC50) was 1 to 10 µM.

In the case of `O=C(Nc1ccc(/C=C/c2ccc(NC(=O)[C@@H]3CCCN3C(=O)Cc3c[nH]cn3)cc2)cc1)[C@@H]1CCCN1C(=O)Cc1c[nH]cn1` [Example 42], the 50% effective concentration (EC50) lay in the range of 1 to 10 µM.

Regarding `O=C(Nc1ccc(/C=C/c2ccc(NC(=O)[C@@H]3CCCN3C(=O)CC3CC3)cc2)cc1)[C@@H]1CCCN1C(=O)CC1CC1` [Example 26], the 50% effective concentration (EC50) is 0.0001 to 0.09 µM.

On to `Cc1ccccc1S(=O)(=O)N1CCC[C@H]1C(=O)Nc1ccc(/C=C/c2ccc(NC(=O)[C@@H]3CCCN3S(=O)(=O)c3ccccc3C)cc2)cc1` [Example 282], for which the half-maximal effective concentration (EC50) fell in the range of 1 to 10 µM.

Turning to `O=C(Nc1ccc(/C=C\c2ccc(NC(=O)[C@@H]3CCCN3C(=O)OCc3ccccc3)cc2)cc1)[C@@H]1CCCN1C(=O)OCc1ccccc1` [Example 6], the EC50 lay within 0.0001 to 0.09 µM.

For the compound `Cc1nocc1C(=O)N1CCC[C@H]1C(=O)Nc1ccc(/C=C/c2ccc(NC(=O)[C@@H]3CCCN3C(=O)c3conc3C)cc2)cc1` [Example 201], the EC50 lay within 0.0001 to 0.09 µM.

In the case of `O=C(Nc1ccc(/C=C/c2ccc(NC(=O)[C@@H]3C[C@@H](O)CN3C(=O)OCc3ccccc3)cc2)cc1)[C@@H]1C[C@@H](O)CN1C(=O)OCc1ccccc1` [Example 4], the EC50 is 0.0001 to 0.09 µM.

For the compound `O=C(Nc1ccc(/C=C/c2ccc(NC(=O)[C@@H]3CCCN3C(=O)c3n[nH]c4ccccc34)cc2)cc1)[C@@H]1CCCN1C(=O)c1n[nH]c2ccccc12` [Example 212], the 50% effective concentration (EC50) was 0.0001 to 0.09 µM.

For the compound `O=C(Nc1ccc(/C=C/c2ccc(NC(=O)[C@@H]3Cc4ccccc4N3C(=O)OCc3ccccc3)cc2)cc1)[C@@H]1Cc2ccccc2N1C(=O)OCc1ccccc1` [Example 19], the half-maximal effective concentration (EC50) was in the range of 0.0001 to 0.09 µM.

On to `O=C(Nc1ccc(/C=C/c2ccc(NC(=O)[C@@H]3CCCN3C(=O)c3cccc4cc[nH]c34)cc2)cc1)[C@@H]1CCCN1C(=O)c1cccc2cc[nH]c12` [Example 149], for which the concentration for a half-maximal effect (EC50) was 0.1 to 1 µM.

Consider `O=C(Nc1ccc(/C=C/c2ccc(NC(=O)[C@@H]3CCCN3C(=O)c3ccccc3F)cc2)cc1)[C@@H]1CCCN1C(=O)c1ccccc1F` [Example 107], for which the half-maximal effective concentration (EC50) was 0.1 to 1 µM.

Regarding `O=C(Nc1ccc(/C=C/c2ccc(NC(=O)[C@@H]3CCCN3C(=O)c3nc4ccccc4[nH]3)cc2)cc1)[C@@H]1CCCN1C(=O)c1nc2ccccc2[nH]1` [Example 180], the EC50 was 1 to 10 µM.

With `O=C(Nc1ccc(/C=C/c2ccc(NC(=O)[C@@H]3CCCN3C(=O)[C@H](O)c3ccccc3)cc2)cc1)[C@@H]1CCCN1C(=O)[C@H](O)c1ccccc1` [Example 298], the EC50 was in the range of 0.0001 to 0.09 µM.

As to `COc1cccc(CC(=O)N2CCC[C@H]2C(=O)Nc2ccc(/C=C/c3ccc(NC(=O)[C@@H]4CCCN4C(=O)Cc4cccc(OC)c4)cc3)cc2)c1` [Example 25], the EC50 was in the range of 0.1 to 1 µM.

For the compound `NCCCCC(N)C(=O)N1CCC[C@H]1C(=O)Nc1ccc(/C=C/c2ccc(NC(=O)[C@@H]3CCCN3C(=O)Cc3ccccc3)cc2)cc1` (stereo partly drawn) [Example 273], the EC50 lay within 1 to 10 µM.

With `O=C(Nc1ccc(/C=C/c2ccc(NC(=O)[C@@H]3CCCN3C(=O)[C@@H]3CCCN3Cc3ccccc3)cc2)cc1)[C@@H]1CCCN1C(=O)[C@@H]1CCCN1Cc1ccccc1` [Example 164], the concentration giving a half-maximal response (EC50) lay within 1 to 10 µM.

Turning to `O=C(Nc1ccc(/C=C/c2ccc(NC(=O)[C@@H]3CCCN3C(=O)c3ccccc3NCc3ccccc3)cc2)cc1)[C@@H]1CCCN1C(=O)Cc1cccnc1` [Example 151], the EC50 lay in the range of 0.1 to 1 µM.

`O=C(Nc1ccc(/C=C/c2ccc(NC(=O)[C@@H]3CCCN3C(=O)OCc3ccccc3)cc2)cc1)C1CC1` [Example 293]: the EC50 fell in the range of 0.1 to 1 µM.

For `COCC(=O)N1CCC[C@H]1C(=O)Nc1ccc(/C=C/c2ccc(NC(=O)[C@@H]3CCCN3C(=O)Cc3cccs3)cc2)cc1` [Example 100], the concentration giving a half-maximal response (EC50) is 0.0001 to 0.09 µM.

As to `CCOC(=O)N1CCC[C@H]1C(=O)Nc1ccc(/C=C/c2ccc(NC(=O)[C@@H]3CCCN3C(=O)C3(C(N)=O)CC3)cc2)cc1` [Example 56], the concentration for a half-maximal effect (EC50) was 0.1 to 1 µM.

With `Cc1nc(C)c(C(=O)N2CCC[C@H]2C(=O)Nc2ccc(/C=C/c3ccc(NC(=O)[C@@H]4CCCN4C(=O)c4sc(C)nc4C)cc3)cc2)s1` [Example 203], the EC50 lay within 0.1 to 1 µM.

For the compound `O=C(Nc1ccc(/C=C/c2ccc(NC(=O)[C@@H]3CCCN3C(=O)[C@H]3CCCO3)cc2)cc1)[C@@H]1CCCN1C(=O)[C@H]1CCCO1` [Example 110], the concentration for a half-maximal effect (EC50) was in the range of 0.0001 to 0.09 µM.

As to `CC(C)(C)OC(=O)N1CC(C(=O)N2CCC[C@H]2C(=O)Nc2ccc(/C=C/c3ccc(NC(=O)[C@@H]4CCCN4C(=O)C4CN(C(=O)OC(C)(C)C)C4)cc3)cc2)C1` [Example 112], the EC50 fell in the range of 0.1 to 1 µM.

For the compound `Cn1ccnc1C(=O)N1CCC[C@H]1C(=O)Nc1ccc(/C=C/c2ccc(NC(=O)[C@@H]3CCCN3C(=O)c3nccn3C)cc2)cc1` [Example 64], the half-maximal effective concentration (EC50) was in the range of 0.0001 to 0.09 µM.

In the case of `O=C(Nc1ccc(/C=C/c2ccc(NC(=O)[C@@H]3CCCN3C(=O)c3ccccc3OCc3ccccc3)cc2)cc1)[C@@H]1CCCN1C(=O)c1ccccc1OCc1ccccc1` [Example 148], the 50% effective concentration (EC50) lay in the range of 1 to 10 µM.

In the case of `O=C(Nc1ccc(/C=C/c2ccc(NC(=O)[C@@H]3CCCN3C(=O)c3ccno3)cc2)cc1)[C@@H]1CCCN1C(=O)c1ccno1` [Example 79], the concentration giving a half-maximal response (EC50) was 0.0001 to 0.09 µM.

Usually EC50 stands for the concentration needed to bring the measured effect to its halfway point.

The values are drawn from patent US8143288B2, “Inhibitors of HCV replication” (priority 2005, dated 2012).
